How the values were obtained:
[1] = molecular target: T1, human α2-GABAA receptor (α2-GABAAR-HEK293 cells) (Homo sapiens, UniProt P18507+P47869); assay: Whole-cell patch-clamp electrophysiology, positive allosteric modulatory activity on α2-GABAA receptor; type: cell-based; conditions: read-out: α2-GABAA positive allosteric modulatory activity
T1 construct: expressed in transfected cells

[2] = molecular target: T2, human α1-GABAA receptor (α1-GABAAR-HEK293 cells) (Homo sapiens, UniProt P14867+P18507); assay: Whole-cell patch-clamp electrophysiology, positive allosteric modulatory activity on α1-GABAA receptor; type: cell-based; conditions: read-out: α1-GABAA positive allosteric modulatory activity
T2 construct: expressed in transfected cells
T2 sequence (P14867 28-456): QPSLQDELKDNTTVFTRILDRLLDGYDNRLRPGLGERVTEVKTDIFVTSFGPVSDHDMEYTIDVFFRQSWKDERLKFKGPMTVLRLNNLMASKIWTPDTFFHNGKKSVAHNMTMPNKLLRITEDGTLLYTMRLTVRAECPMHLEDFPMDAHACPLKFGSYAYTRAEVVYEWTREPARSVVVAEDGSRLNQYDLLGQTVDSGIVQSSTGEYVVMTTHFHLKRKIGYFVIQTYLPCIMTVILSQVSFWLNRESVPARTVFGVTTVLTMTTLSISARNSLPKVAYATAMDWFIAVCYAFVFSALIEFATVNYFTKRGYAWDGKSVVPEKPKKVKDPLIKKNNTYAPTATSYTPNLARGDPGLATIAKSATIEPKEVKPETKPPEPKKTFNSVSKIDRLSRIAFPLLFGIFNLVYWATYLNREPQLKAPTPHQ
T2 sequence (P18507 40-467 isoform P18507-1 limits assumed): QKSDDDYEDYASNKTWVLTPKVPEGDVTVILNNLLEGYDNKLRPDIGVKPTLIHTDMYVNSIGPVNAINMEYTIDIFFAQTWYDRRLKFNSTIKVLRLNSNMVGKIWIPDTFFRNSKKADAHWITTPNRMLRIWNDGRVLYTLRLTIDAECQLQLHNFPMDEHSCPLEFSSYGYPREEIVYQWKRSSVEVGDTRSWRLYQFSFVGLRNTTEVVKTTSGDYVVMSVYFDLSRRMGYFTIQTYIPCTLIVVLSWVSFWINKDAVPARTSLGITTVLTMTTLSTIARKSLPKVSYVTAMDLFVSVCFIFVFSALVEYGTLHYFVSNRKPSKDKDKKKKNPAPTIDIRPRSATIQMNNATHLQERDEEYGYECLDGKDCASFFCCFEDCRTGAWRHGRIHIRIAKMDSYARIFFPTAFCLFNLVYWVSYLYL
T2 sequence (P28472 26-473 partner): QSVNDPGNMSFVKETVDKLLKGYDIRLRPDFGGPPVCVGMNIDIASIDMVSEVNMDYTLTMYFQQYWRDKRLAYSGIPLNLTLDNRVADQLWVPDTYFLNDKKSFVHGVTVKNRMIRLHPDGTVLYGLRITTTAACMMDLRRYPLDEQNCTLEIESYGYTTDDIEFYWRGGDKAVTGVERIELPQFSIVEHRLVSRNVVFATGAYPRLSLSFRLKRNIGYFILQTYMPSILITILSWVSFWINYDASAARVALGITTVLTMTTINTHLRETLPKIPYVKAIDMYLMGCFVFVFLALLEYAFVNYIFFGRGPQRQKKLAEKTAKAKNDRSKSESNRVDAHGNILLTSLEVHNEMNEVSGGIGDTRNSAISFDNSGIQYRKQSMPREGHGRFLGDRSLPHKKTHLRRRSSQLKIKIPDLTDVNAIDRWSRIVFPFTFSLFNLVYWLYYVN

T1 sequence (P47869 29-451): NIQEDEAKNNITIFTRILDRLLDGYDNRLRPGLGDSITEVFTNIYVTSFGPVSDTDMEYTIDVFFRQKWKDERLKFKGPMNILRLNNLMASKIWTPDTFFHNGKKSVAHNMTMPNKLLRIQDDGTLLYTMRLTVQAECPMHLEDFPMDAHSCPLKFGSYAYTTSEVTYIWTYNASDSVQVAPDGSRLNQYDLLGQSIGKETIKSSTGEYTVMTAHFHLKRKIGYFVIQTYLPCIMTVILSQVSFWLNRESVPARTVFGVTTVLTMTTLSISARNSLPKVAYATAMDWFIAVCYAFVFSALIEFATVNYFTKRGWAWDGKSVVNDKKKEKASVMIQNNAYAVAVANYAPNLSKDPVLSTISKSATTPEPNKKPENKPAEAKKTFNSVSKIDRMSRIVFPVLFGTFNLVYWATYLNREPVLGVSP
T1 sequence (P18507 40-467 isoform P18507-1 limits assumed): as the sequence (P18507 40-467 isoform P18507-1 limits assumed) above
T1 sequence (P28472 26-473 partner): as the sequence (P28472 26-473 partner) above

Compound: CCn1cnc2c(-c3ccc(F)c(-c4cc5c(cc4OC)N(C)C(=O)CO5)c3)cnnc21 [Example 42, 7-(5-(7-Ethyl-7H-imidazo[4,5-c]pyridazin-4-yl)-2-fluorophenyl)-6-methoxy-4-methyl-2H-benzo[b][1,4]oxazin-3(4H)-one]
- activation at 0.1 µM [1]: 145%
- activation at 0.1 µM [2]: 27%

Compound: CCN1C(=O)COc2cc(-c3cc(-c4cnnc5c4ncn5CC)ccc3F)c(OC)cc21 [Example 31, 4-Ethyl-7-(5-(7-ethyl-7H-imidazo[4,5-c]pyridazin-4-yl)-2-fluorophenyl)-6-methoxy-2H-benzo[b][1,4]oxazin-3(4H)-one]
- activation at 0.1 µM [1]: 96%
- activation at 0.1 µM [2]: 13%

Compound: COc1cc2c(cc1-c1cc(-c3cnnc4c3ncn4C(C)C)ccc1F)OCC(=O)N2C [Example 36, 7-(2-Fluoro-5-(7-isopropyl-7H-imidazo[4,5-c]pyridazin-4-yl)phenyl)-6-methoxy-4-methyl-2H-benzo[b][1,4]oxazin-3(4H)-one]
- activation at 0.1 µM [1]: 137%
- activation at 0.1 µM [2]: 25%

Compound: CCn1cnc2c(-c3ccc(F)c(-c4cc5oc(=O)n(C)c5cc4OC)c3)cnnc21 [Example 87, 6-(5-(7-Ethyl-7H-imidazo[4,5-c]pyridazin-4-yl)-2-fluorophenyl)-5-methoxy-3-methylbenzo[d]oxazol-2(3H)-one]
- activation at 0.1 µM [1]: 114%
- activation at 0.1 µM [2]: 3%

Compound: CCn1cnc2c(-c3ccc(F)c(-c4cc5c(cc4OC)N(C)C(=O)C5)c3)cnnc21 [Example 161, 5-(5-(7-Ethyl-7H-imidazo[4,5-c]pyridazin-4-yl)-2-fluorophenyl)-6-methoxy-1-methyldihydro-2-one]
- activation at 0.1 µM [1]: 118%
- activation at 0.1 µM [2]: 65%
